Measured values: patent US20060263355A1, “Treatment of bone disorders” (priority 2005, published 2006)

Tests used:
[1] = test system: serological markers of inflammation and bone turnover; assay: Serum biochemical markers in RA patients, Phase IIa study of rituximab; type: in vivo, human; conditions: week 24 vs baseline, n = 40
Procedure: Serum samples were analyzed from RA+ patients who received either methotrexate (MTX) alone or MTX in combination with a single course of rituximab as part of a Phase IIa study of rituximab in RA to be reported elsewhere. The following markers were measured at baseline and Week 24: anti-CCP, CRP, S100, SAA, PINP and Osteocalcin (OC).
Biomarker data were analyzed using a non-parametric approach by comparing the percentage changes at 24-weeks from baseline in MTX group with the RTX+MTX group. The median percent change from baseline was plotted using the following formula: Pcfb1(marker)=((slope—lr*study time at last visit)/intercept—lr)*100
where slope_lr=slope of linear regression for each patient • intercept_lr=intercept of linear regression for each patient.

[2] = cited from earlier work; for effect in rat adjuvant / experimental arthritis: in vivo
[3] = ACR50 clinical response in RA, Phase IIa study of rituximab; type: in vivo, human; conditions: two infusions of rituximab two weeks apart with ongoing MTX, versus MTX alone
[4] = test system: TRAP-positive osteoclasts; assay: TRAP assay, osteoclasts formed in vitro (Example 4)
Procedure: TRAP refers to tartrate-resistant acid phosphatase that identifies osteoclast-like cells.
In this test, naphthol AS-MX phosphate 5 mg (Sigma, St. Louis, Mo.) is resolved in 0.5 ml of N,N-dimethylformamide (Wako). Thirty milligrams of fast red violet LB salt (Sigma) and 50 ml of 0.1 M sodium acetate buffer (pH 5.0) containing 50 mM sodium tartrate are added to the mixture (the TRAP-staining solution). Cells are fixed with 3.7% (v/v) formaldehyde in Ca^2− and Mg^2+-free phosphate-buffered saline for 10 min, fixed again with ethanol-acetone (50:50, v:v) for 1 min, and incubated with the TRAP-staining solution for 10 min. at room temperature. TRAP-positive osteoclasts appear as red cells. The incubation period should not exceed 10 min. since cells other than osteoclasts become weakly positive with time. After staining, cells are washed with distilled water, and TRAP-positive multinucleated cells having three or more nuclei are counted as osteoclasts under a microscope (Nicholson et al., J. Clin. Invest. 78: 355 (1986)).

[5] = Bone remodeling in animals (Example 2); conditions: rats, subcutaneously once per day for 35 days
[6] = Periodontal disease model (Example 5); type: in vivo; conditions: applied to the periodontal pocket
Procedure: Rituximab may be used to regenerate bone and ligament lost to periodontal disease. In this model teeth showing 20% to 80% reduction of surrounding jaw bone are scaled, then a full-thickness gingival flap is made by an incision to expose the jaw bone and tooth root. The root is planed to remove bacterial plaque and calculus. Rituximab is applied to the periodontal pocket in a 2.5% HPMC gel at a dose of […] per tooth, or alternatively a solution of rituximab in 100 mM sodium acetate buffer, pH 6.0 is added to powdered bone to provide a dosage of […] rituximab per tooth. The material is thoroughly mixed and applied to the exposed periodontal pocket. In both cases, the gingival flap is then closed and held in place by suturing.

[7] = pH 5; cited from earlier work
[8] = test system: B cells; conditions: cynomolgus monkey; cited from earlier work
[9] = in vivo; cited from earlier work
[10] = test system: lymphoid B-cell lines; conditions: cited from earlier work
[11] = test system: serological markers of inflammation and bone turnover; assay: Serum biochemical markers in RA patients, Phase IIa study of rituximab; type: in vivo, human; conditions: RA patients treated with rituximab
[12] = in vivo; cited from earlier work; remark: listed apart in the source

## CN(Cc1cnc2nc(N)nc(N)c2n1)c1ccc(C(=O)N[C@@H](CCC(=O)O)C(=O)O)cc1 [MTX, methotrexate]
[1]
  Anti-CCP (anti-citrullinated peptide antibody), median % change from baseline at 24 weeks: −21.03%
  CRP (C-reactive protein), median % change from baseline at 24 weeks: −22.21%
  OC (osteocalcin), median % change from baseline at 24 weeks: 1.94%
  P-1NP (procollagen type 1 N-terminal propeptide), median % change from baseline at 24 weeks: −11.78%
  S100 (S100 A8/9), median % change from baseline at 24 weeks: −14.31%
  SAA (serum amyloid A), median % change from baseline at 24 weeks: −10.55%

## O=P(O)(O)C(O)(Cc1cccnc1)P(=O)(O)O [NE58095]
[2]
  effect in rat adjuvant / experimental arthritis: prevents bone erosion and preserves joint architecture

## O=P(O)(O)C(O)(Cn1ccnc1)P(=O)(O)O [Zoledronate]
[2]
  effect in rat adjuvant / experimental arthritis: protects against meta hyseal intracortical defets

## O=P(O)(O)C(Cl)(Cl)P(=O)(O)O [clodronate]
[2]; 20 mg/kg/day iv infusion
  effect in arthritis study at 20 mg/kg/day iv infusion: decreases pedal inflammation and bone resorption, but also inhibits bone formation
[2]
  effect in rat adjuvant / experimental arthritis: decrease weight loss, pedal inflammation, and bone resorption

## CC(O)(P(=O)(O)O)P(=O)(O)O [etridronate]
[2]
  effect in rat adjuvant / experimental arthritis: decrease weight loss, pedal inflammation, and bone resorption

## Rituximab + MTX: MTX in combination with a single course of rituximab
[3]
  ACR50 response at 24 weeks: significantly higher clinical responses
[1]
  Anti-CCP (anti-citrullinated peptide antibody), median % change from baseline at 24 weeks: −45.78%
  CRP (C-reactive protein), median % change from baseline at 24 weeks: −59.07%
  OC (osteocalcin), median % change from baseline at 24 weeks: 28.76%
  P-1NP (procollagen type 1 N-terminal propeptide), median % change from baseline at 24 weeks: 13.64%
  S100 (S100 A8/9), median % change from baseline at 24 weeks: −52.73%
  SAA (serum amyloid A), median % change from baseline at 24 weeks: −77.02%

## humanized 2H7: humanized CD20 antibody, or antigen-binding fragment, comprising at least CDR H3 of SEQ ID NO:12 and human VHIII framework
[4]
  performance as positive control in TRAP assay: effective as a positive control
[5]
  bone remodeling versus controls: effective in enhancing bone remodeling over the controls
[6]
  regeneration of surrounding jaw bone versus placebo: at least partially regenerated

## rituximab
[7]
  minimum shelf life: two
[4]
  performance as positive control in TRAP assay: effective as a positive control
[8]
  B-cell depletion in vivo: depletes B cells from the peripheral blood, lymph nodes, and bone marrow
[5]
  bone remodeling versus controls: effective in enhancing bone remodeling over the controls
[9]
  patients admitted to the hospital for overnight observation after moderate fever and rigors following the first infusion: 1 of 10
[10]
  complement-dependent cytotoxicity (CDC): lyses lymphoid B-cell lines
[11]
  Total immunoglobulin levels: not affected significantly
[6]
  regeneration of surrounding jaw bone versus placebo: at least partially regenerated
[12]
  patients experiencing at least one adverse event during their first infusion: 36%
